Measured values published in ChEMBL document CHEMBL1177725, “6-(3,4-dichlorophenyl)-1-[(methyloxy)methyl]-3-azabicyclo[4.1.0]heptane: a new potent and selective triple reuptake inhibitor” (J Med Chem, 2010).

What was measured:
Type in all cases: cell-based
[1] = biological target: Sodium-dependent dopamine transporter (Homo sapiens, UniProt Q01959); assay: Displacement of [N-methyl-3H]WIN-35428 from human recombinant DAT expressed in pig LLCPK cells after 2 hrs by liquid scintillation counting
[2] = biological target: Sodium-dependent noradrenaline transporter (Homo sapiens, UniProt P23975); assay: Displacement of [N-methyl-3H]nisoxetine from human recombinant NET expressed in pig LLCPK cells after 2 hrs by liquid scintillation counting
Sequence of Sodium-dependent noradrenaline transporter (P23975 whole entry): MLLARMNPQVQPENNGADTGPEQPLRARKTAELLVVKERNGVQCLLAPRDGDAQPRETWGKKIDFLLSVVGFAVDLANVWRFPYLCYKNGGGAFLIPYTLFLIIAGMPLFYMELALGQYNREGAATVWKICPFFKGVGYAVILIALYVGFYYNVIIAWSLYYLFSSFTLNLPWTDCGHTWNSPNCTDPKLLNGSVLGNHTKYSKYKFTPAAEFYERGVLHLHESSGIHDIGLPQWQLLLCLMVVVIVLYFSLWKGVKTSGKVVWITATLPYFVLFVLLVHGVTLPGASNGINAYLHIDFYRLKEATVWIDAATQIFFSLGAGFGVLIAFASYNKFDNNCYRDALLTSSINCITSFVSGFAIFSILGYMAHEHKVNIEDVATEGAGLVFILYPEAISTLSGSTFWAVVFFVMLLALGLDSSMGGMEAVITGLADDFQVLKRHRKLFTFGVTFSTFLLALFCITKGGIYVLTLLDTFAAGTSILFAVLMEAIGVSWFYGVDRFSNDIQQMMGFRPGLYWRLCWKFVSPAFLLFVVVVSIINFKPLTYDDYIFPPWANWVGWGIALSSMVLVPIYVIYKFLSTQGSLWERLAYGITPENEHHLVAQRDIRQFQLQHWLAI

[3] = biological target: Sodium-dependent serotonin transporter (Homo sapiens, UniProt P31645); assay: Displacement of [N-methyl-3H]citalopram from human recombinant SERT expressed in pig LLCPK cells after 2 hrs by liquid scintillation counting
Sequence of Sodium-dependent serotonin transporter (P31645 whole entry): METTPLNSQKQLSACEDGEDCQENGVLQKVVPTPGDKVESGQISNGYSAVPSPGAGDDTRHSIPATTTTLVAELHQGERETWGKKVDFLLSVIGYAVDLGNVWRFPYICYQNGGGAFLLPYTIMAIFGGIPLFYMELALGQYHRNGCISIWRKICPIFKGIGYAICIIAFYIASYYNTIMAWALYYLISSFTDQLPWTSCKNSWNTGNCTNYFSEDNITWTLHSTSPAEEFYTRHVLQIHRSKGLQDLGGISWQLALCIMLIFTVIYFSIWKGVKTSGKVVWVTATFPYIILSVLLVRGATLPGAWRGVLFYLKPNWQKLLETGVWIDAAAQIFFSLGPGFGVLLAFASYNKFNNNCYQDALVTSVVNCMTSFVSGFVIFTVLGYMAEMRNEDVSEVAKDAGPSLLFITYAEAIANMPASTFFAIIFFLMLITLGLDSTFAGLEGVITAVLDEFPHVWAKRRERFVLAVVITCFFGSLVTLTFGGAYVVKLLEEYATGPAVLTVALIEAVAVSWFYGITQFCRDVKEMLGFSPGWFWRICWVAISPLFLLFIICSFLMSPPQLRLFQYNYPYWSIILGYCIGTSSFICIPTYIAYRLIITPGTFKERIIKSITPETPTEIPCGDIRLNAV

Sequence of Sodium-dependent dopamine transporter (Q01959 whole entry): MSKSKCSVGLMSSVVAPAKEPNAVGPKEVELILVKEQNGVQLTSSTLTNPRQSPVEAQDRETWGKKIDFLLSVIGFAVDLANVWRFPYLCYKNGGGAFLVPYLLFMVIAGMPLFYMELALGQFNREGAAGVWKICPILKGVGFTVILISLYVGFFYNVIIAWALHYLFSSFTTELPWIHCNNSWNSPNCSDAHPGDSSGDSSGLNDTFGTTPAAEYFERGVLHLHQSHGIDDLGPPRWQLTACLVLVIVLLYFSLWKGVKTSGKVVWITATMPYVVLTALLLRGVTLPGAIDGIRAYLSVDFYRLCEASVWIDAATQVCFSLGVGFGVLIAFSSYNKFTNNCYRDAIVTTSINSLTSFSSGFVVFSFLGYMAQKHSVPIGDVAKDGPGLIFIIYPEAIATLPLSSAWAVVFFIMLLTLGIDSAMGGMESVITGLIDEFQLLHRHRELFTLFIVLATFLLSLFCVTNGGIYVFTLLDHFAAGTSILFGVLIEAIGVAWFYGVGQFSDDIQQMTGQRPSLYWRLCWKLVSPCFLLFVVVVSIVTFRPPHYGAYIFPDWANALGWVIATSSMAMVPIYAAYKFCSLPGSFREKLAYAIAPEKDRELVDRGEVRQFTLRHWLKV

## COC[C@@]12CNCC[C@]1(c1ccc3ccccc3c1)C2 (racemic) [1-(METHOXYMETHYL)-6-(NAPHTHALEN-2-YL)-3-AZABICYCLO[4.1.0]HEPTANE (ENANTIOMERIC MIX)]
[1]
  Ki: 31.6 nM
[2]
  Ki: 12.6 nM
[3]
  Ki: 0.316 nM

## COC[C@@]12CNC[C@H](F)[C@]1(c1ccc(Cl)c(Cl)c1)C2 (racemic)
[1]
  Ki: 100 nM
[2]
  Ki: 100 nM
[3]
  Ki: 5.01 nM

## COC[C@@]12CNCC[C@]1(c1ccc(Cl)cc1)C2 (racemic)
[1]
  Ki: 251 nM
[2]
  Ki: 200 nM
[3]
  Ki: 15.8 nM

## COC[C@@]12CCNC[C@]1(c1ccc(Cl)c(Cl)c1)C2 (relative stereo) [RAC-1-(3,4-DICHLOROPHENYL)-6-(METHOXYMETHYL)-2-AZABICYCLO[4.1.0]HEPTANE (ENANTIOMERS)]
[1]
  Ki: 63.1 nM
[2]
  Ki: 100 nM
[3]
  Ki: 12.6 nM

## C=CCC(OC)[C@]12CNCC[C@]1(c1ccc(Cl)c(Cl)c1)C2 (mixture of isomers; form 2) [6-(3,4-DICHLOROPHENYL)-1-[1-(METHYLOXY)-3-BUTEN-1-YL]-3-AZABICYCLO[4.1.0]HEPTANE (DIASTEREOMERIC MIX)]
[1]
  Ki: 1.58 nM
[2]
  Ki: 3.98 nM
[3]
  Ki: 1.26 nM

## Clc1ccc([C@]23CCN4CC[C@]2(C4)C3)cc1Cl (single isomer, unassigned; 49) [3-(3,4-DICHLORO-PHENYL)-6-AZA-TRICYCLO[4.2.1.0*1,3*]NONANE (STRUCTURAL MIX)]
[1]
  Ki: 79.4 nM
[2]
  Ki: 63.1 nM
[3]
  Ki: 1.58 nM

## COC[C@@]12CNCC[C@]1(c1ccc(Cl)c(C(F)(F)F)c1)C2 (racemic)
[1]
  Ki: 3160 nM
[2]
  Ki: 200 nM
[3]
  Ki: 15.8 nM

## OC[C@@]12CNCC[C@]1(c1ccc(Cl)c(Cl)c1)C2 (relative stereo; 15) [RAC-1-(3,4-DICHLOROPHENYL)-3-AZABICYCLO[4.1.0]HEPTAN-6-YL)METHANOL (STRUCTURAL MIX)]
[1]
  Ki: 79.4 nM
[2]
  Ki: 100 nM
[3]
  Ki: 7.94 nM

## COC[C@H]1[C@@H]2CNCC[C@@]21c1ccc(Cl)c(Cl)c1 (racemic)
[1]
  Ki: 1260 nM
[2]
  Ki: 2000 nM
[3]
  Ki: 50.1 nM

## COC[C@@]12CNC[C@@H](OC)[C@]1(c1ccc(Cl)c(Cl)c1)C2 (racemic)
[1]
  Ki: 398 nM
[2]
  Ki: 1580 nM
[3]
  Ki: 251 nM

## COC[C@@]12CN(C)CC[C@]1(c1ccc(Cl)c(Cl)c1)C2
[1]
  Ki: 31.6 nM
[2]
  Ki: 794 nM
[3]
  Ki: 12.6 nM

## Clc1ccc([C@]23CCN4CC[C@]2(C4)C3)cc1Cl (single isomer, unassigned; 50) [3-(3,4-DICHLORO-PHENYL)-6-AZA-TRICYCLO[4.2.1.0*1,3*]NONANE (STRUCTURAL MIX)]
[1]
  Ki: 251 nM
[2]
  Ki: 794 nM
[3]
  Ki: 31.6 nM

## NC(=O)[C@@]12CNCC[C@]1(c1ccc(Cl)c(Cl)c1)C2 (racemic)
[1]
  Ki: 251 nM
[2]
  Ki: 794 nM
[3]
  Ki: 100 nM

## Clc1ccc([C@]23CNCC[C@H]2C3)cc1Cl (relative stereo; 4) [1-PHENYL-3-AZABICYCLO[4.1.0]HEPTANE (STRUCTURAL MIX)]
[1]
  Ki: 39.8 nM
[2]
  Ki: 63.1 nM
[3]
  Ki: 79.4 nM

## CCOC(=O)[C@@]12CNCC[C@]1(c1ccc(Cl)c(Cl)c1)C2 (racemic)
[1]
  Ki: 5.01 nM
[2]
  Ki: 7.94 nM
[3]
  Ki: 15.8 nM

## CCOC[C@@]12CNCC[C@]1(c1ccc(Cl)c(Cl)c1)C2 (racemic) [6-(3,4-DICHLOROPHENYL)-1-[(ETHYLOXY)METHYL]-3-AZABICYCLO[4.1.0]-HEPTANE (ENANTIOMERIC MIX)]
[1]
  Ki: 6.31 nM
[2]
  Ki: 10 nM
[3]
  Ki: 1.26 nM

## Clc1ccc([C@@]23CCNC[C@@H]2C3)cc1Cl (single isomer, unassigned) [RAC-1-(3,4-DICHLO ROPHENYL)-3-AZABICYCLO[4.1.0]HEPTANE (ENANTIOMERS)]
[1]
  Ki: 25.1 nM
[2]
  Ki: 100 nM
[3]
  Ki: 12.6 nM

## CCOC[C@@]12CNCC[C@]1(c1ccc(Cl)c(Cl)c1)C2 (relative stereo; 31) [6-(3,4-DICHLOROPHENYL)-1-[(ETHYLOXY)METHYL]-3-AZABICYCLO[4.1.0]-HEPTANE (ENANTIOMERIC MIX)]
[1]
  Ki: 3.98 nM
[2]
  Ki: 7.94 nM
[3]
  Ki: 1 nM

## COC[C@@]12CNC[C@H](OC)[C@]1(c1ccc(Cl)c(Cl)c1)C2 (racemic)
[1]
  Ki: 501 nM
[2]
  Ki: 1260 nM
[3]
  Ki: 100 nM

## Clc1ccc([C@]23CCNC[C@@]2(COCC2CC2)C3)cc1Cl (relative stereo; 35) [1-((CYCLOPROPYLMETHOXY)METHYL)-6-(3,4-DICHLOROPHENYL)-3-AZABICYCLO[4.1.0]HEPTANE (ENANTIOMERIC MIX)]
[1]
  Ki: 63.1 nM
[2]
  Ki: 126 nM
[3]
  Ki: 3.98 nM

## Clc1ccc([C@@]23CCNC[C@@H]2C3)cc1Cl (racemic) [RAC-1-(3,4-DICHLO ROPHENYL)-3-AZABICYCLO[4.1.0]HEPTANE (ENANTIOMERS)]
[1]
  Ki: 50.1 nM
[2]
  Ki: 251 nM
[3]
  Ki: 25.1 nM

## COC[C@@H]1[C@@H]2CCNC[C@]12c1ccc(Cl)c(Cl)c1 (racemic)
[1]
  Ki: 126 nM
[2]
  Ki: 63.1 nM
[3]
  Ki: 31.6 nM

## Clc1ccc([C@]23CCNC[C@@]2(COCC2CC2)C3)cc1Cl (racemic) [1-((CYCLOPROPYLMETHOXY)METHYL)-6-(3,4-DICHLOROPHENYL)-3-AZABICYCLO[4.1.0]HEPTANE (ENANTIOMERIC MIX)]
[1]
  Ki: 12.6 nM
[2]
  Ki: 50.1 nM
[3]
  Ki: 1.26 nM

## OC[C@@]12CNCC[C@]1(c1ccc(Cl)c(Cl)c1)C2 (racemic) [RAC-1-(3,4-DICHLOROPHENYL)-3-AZABICYCLO[4.1.0]HEPTAN-6-YL)METHANOL (STRUCTURAL MIX)]
[1]
  Ki: 200 nM
[2]
  Ki: 158 nM
[3]
  Ki: 20 nM

## CC#CNC(=O)[C@@]12CNCC[C@]1(c1ccc(Cl)c(Cl)c1)C2 (racemic)
[1]
  Ki: 158 nM
[2]
  Ki: 501 nM
[3]
  Ki: 100 nM

## COC[C@@]12CNCC[C@]1(c1ccc(F)c(Cl)c1)C2 (racemic)
[1]
  Ki: 158 nM
[2]
  Ki: 316 nM
[3]
  Ki: 1.58 nM

## CC(=O)[C@@]12CNCC[C@]1(c1ccc(Cl)c(Cl)c1)C2 (relative stereo)
[1]
  Ki: 3.98 nM
[2]
  Ki: 15.8 nM
[3]
  Ki: 1 nM

## OC[C@@]12CNCC[C@]1(c1ccc(Cl)c(Cl)c1)C2 (relative stereo; 14) [RAC-1-(3,4-DICHLOROPHENYL)-3-AZABICYCLO[4.1.0]HEPTAN-6-YL)METHANOL (STRUCTURAL MIX)]
[1]
  Ki: 100 nM
[2]
  Ki: 398 nM
[3]
  Ki: 39.8 nM

## CCOC[C@@]12CNCC[C@]1(c1ccc(Cl)c(Cl)c1)C2 (relative stereo; 30) [6-(3,4-DICHLOROPHENYL)-1-[(ETHYLOXY)METHYL]-3-AZABICYCLO[4.1.0]-HEPTANE (ENANTIOMERIC MIX)]
[1]
  Ki: 63.1 nM
[2]
  Ki: 100 nM
[3]
  Ki: 10 nM

## Clc1ccc([C@]23CNCC[C@H]2C3)cc1Cl (relative stereo; 5) [1-PHENYL-3-AZABICYCLO[4.1.0]HEPTANE (STRUCTURAL MIX)]
[1]
  Ki: 100 nM
[2]
  Ki: 398 nM
[3]
  Ki: 251 nM

## COC[C@@]12CCNC[C@]1(c1ccc(Cl)c(Cl)c1)C2 (single isomer, unassigned) [RAC-1-(3,4-DICHLOROPHENYL)-6-(METHOXYMETHYL)-2-AZABICYCLO[4.1.0]HEPTANE (ENANTIOMERS)]
[1]
  Ki: 631 nM
[2]
  Ki: 1000 nM
[3]
  Ki: 158 nM

## COC[C@@H]1[C@@H]2CNCC[C@]12c1ccc(Cl)c(Cl)c1 (racemic)
[1]
  Ki: 398 nM
[2]
  Ki: 316 nM
[3]
  Ki: 10 nM
